Data: patent US20080108641A1, “Compounds for treating inflammatory disorders, demyelinating disdorders and cancers” (priority 2006, published 2008)

Tested on: colorectal cancer cell lines (HT29 & HCT116)
Experiment: Microarray differential gene expression (CodeLink Human Whole Genome Bioarrays)
Format: cell-based

Question: With CCN(CC)CCNc1ccc2ncn3c4ccc(O)cc4c(=O)c1c23 [Symadex™] as the compound, how does the “number of down-regulated genes significantly represented in both cell types” value (array of 55,000 gene fragment accessions, cells grown at concentration) read?
Answer: 271

Question: And the “MEAN FOLD CHANGE OVER CONTROL” value (gene ACYP1)?
Answer: −2.07

Question: And the “MEAN FOLD CHANGE OVER CONTROL” value (gene ADCYAP1)?
Answer: −21.74

Question: And the “MEAN FOLD CHANGE OVER CONTROL” value (gene ADH1C)?
Answer: −12.02

Question: What about the “MEAN FOLD CHANGE OVER CONTROL” value (gene AGT) of the same compound?
Answer: −22.71

Question: And the “MEAN FOLD CHANGE OVER CONTROL” value (gene ALG5)?
Answer: −2.71

Question: What about the “MEAN FOLD CHANGE OVER CONTROL” value (gene ANAPC4) of the same compound?
Answer: −1.92

Question: And the “MEAN FOLD CHANGE OVER CONTROL” value (gene APOA1)?
Answer: −13.15

Question: And the “MEAN FOLD CHANGE OVER CONTROL” value (gene ARL6IP)?
Answer: −2.29

Question: What about the “MEAN FOLD CHANGE OVER CONTROL” value (gene ASAH2) of the same compound?
Answer: −2.21

Question: What about the “MEAN FOLD CHANGE OVER CONTROL” value (gene HAT1) of the same compound?
Answer: −2.63

Question: What about the “MEAN FOLD CHANGE OVER CONTROL” value (gene HMGB1) of the same compound?
Answer: −1.97

Question: And the “MEAN FOLD CHANGE OVER CONTROL” value (gene HMMR)?
Answer: −2.94

Question: What about the “MEAN FOLD CHANGE OVER CONTROL” value (gene HNF4A) of the same compound?
Answer: −7.42

Question: And the “MEAN FOLD CHANGE OVER CONTROL” value (gene HNRPA2B1)?
Answer: −1.93

Question: What about the “MEAN FOLD CHANGE OVER CONTROL” value (gene HSGT1) of the same compound?
Answer: −2.08

Question: What about the “MEAN FOLD CHANGE OVER CONTROL” value (gene HSPB2) of the same compound?
Answer: −13.76

Question: What about the “MEAN FOLD CHANGE OVER CONTROL” value (gene IBSP) of the same compound?
Answer: −58.56

Question: And the “MEAN FOLD CHANGE OVER CONTROL” value (gene IL1RAP)?
Answer: −11.23

Question: And the “MEAN FOLD CHANGE OVER CONTROL” value (gene IL1RL1)?
Answer: −28.60

Question: What about the “MEAN FOLD CHANGE OVER CONTROL” value (gene IL7R) of the same compound?
Answer: −25.20

Question: And the “MEAN FOLD CHANGE OVER CONTROL” value (gene IL13RA2)?
Answer: −9.79

Question: What about the “MEAN FOLD CHANGE OVER CONTROL” value (gene ITGA2B) of the same compound?
Answer: −10.64

Question: What about the “MEAN FOLD CHANGE OVER CONTROL” value (gene ITGA9) of the same compound?
Answer: −27.91

Question: What about the “MEAN FOLD CHANGE OVER CONTROL” value (gene ITGAE) of the same compound?
Answer: −2.12

Question: And the “MEAN FOLD CHANGE OVER CONTROL” value (gene ITGB3BP)?
Answer: −2.73

Question: And the “MEAN FOLD CHANGE OVER CONTROL” value (gene ITSN1)?
Answer: −15.06

Question: And the “MEAN FOLD CHANGE OVER CONTROL” value (gene KCNJ12)?
Answer: −15.93

Question: What about the “MEAN FOLD CHANGE OVER CONTROL” value (gene KCNJ15) of the same compound?
Answer: −6.83

Question: And the “MEAN FOLD CHANGE OVER CONTROL” value (gene KCNQ2)?
Answer: −24.13

Question: What about the “MEAN FOLD CHANGE OVER CONTROL” value (gene KIAA0089) of the same compound?
Answer: −7.23

Question: And the “MEAN FOLD CHANGE OVER CONTROL” value (gene KIF2C)?
Answer: −2.52

Question: What about the “MEAN FOLD CHANGE OVER CONTROL” value (gene KIF5A) of the same compound?
Answer: −11.04

Question: What about the “MEAN FOLD CHANGE OVER CONTROL” value (gene KLRG1) of the same compound?
Answer: −24.24

Question: And the “MEAN FOLD CHANGE OVER CONTROL” value (gene KRT13)?
Answer: −3.34

Question: And the “MEAN FOLD CHANGE OVER CONTROL” value (gene LCP2)?
Answer: −11.85

Question: What about the “MEAN FOLD CHANGE OVER CONTROL” value (gene LIMS2) of the same compound?
Answer: −57.61

Question: And the “MEAN FOLD CHANGE OVER CONTROL” value (gene LNX)?
Answer: −87.48

Question: What about the “MEAN FOLD CHANGE OVER CONTROL” value (gene LPAAT-E (first entry)) of the same compound?
Answer: −11.94

Question: What about the “MEAN FOLD CHANGE OVER CONTROL” value (gene LPAAT-E (second entry)) of the same compound?
Answer: −2.40

Question: What about the “MEAN FOLD CHANGE OVER CONTROL” value (gene LRP1B) of the same compound?
Answer: −15.01

Question: What about the “MEAN FOLD CHANGE OVER CONTROL” value (gene LTB) of the same compound?
Answer: −12.57

Question: What about the “MEAN FOLD CHANGE OVER CONTROL” value (gene MAD2L1) of the same compound?
Answer: −3.14

Question: What about the “MEAN FOLD CHANGE OVER CONTROL” value (gene MAP6) of the same compound?
Answer: −12.89

Question: What about the “MEAN FOLD CHANGE OVER CONTROL” value (gene MAPK13) of the same compound?
Answer: −2.14

Question: And the “MEAN FOLD CHANGE OVER CONTROL” value (gene MAPT)?
Answer: −26.53

Question: And the “MEAN FOLD CHANGE OVER CONTROL” value (gene MAZ)?
Answer: −1.89

Question: What about the “MEAN FOLD CHANGE OVER CONTROL” value (gene MCM6) of the same compound?
Answer: −1.97

Question: What about the “MEAN FOLD CHANGE OVER CONTROL” value (gene MCM7) of the same compound?
Answer: −2.69

Question: And the “MEAN FOLD CHANGE OVER CONTROL” value (gene MEA)?
Answer: −2.39

Question: And the “MEAN FOLD CHANGE OVER CONTROL” value (gene MGAT4A)?
Answer: −10.83

Question: And the “MEAN FOLD CHANGE OVER CONTROL” value (gene MIS12)?
Answer: −2.20

Question: And the “MEAN FOLD CHANGE OVER CONTROL” value (gene MPZL1)?
Answer: −2.04

Question: And the “MEAN FOLD CHANGE OVER CONTROL” value (gene MRPL1)?
Answer: −2.02

Question: And the “MEAN FOLD CHANGE OVER CONTROL” value (gene MRPL11)?
Answer: −2.97

Question: And the “MEAN FOLD CHANGE OVER CONTROL” value (gene MRPL13)?
Answer: −2.16

Question: What about the “MEAN FOLD CHANGE OVER CONTROL” value (gene MRPL23) of the same compound?
Answer: −2.29

Question: What about the “MEAN FOLD CHANGE OVER CONTROL” value (gene MRPL39) of the same compound?
Answer: −2.20

Question: What about the “MEAN FOLD CHANGE OVER CONTROL” value (gene MSLN) of the same compound?
Answer: −17.46

Question: What about the “MEAN FOLD CHANGE OVER CONTROL” value (gene MT1A) of the same compound?
Answer: −16.21

Question: What about the “MEAN FOLD CHANGE OVER CONTROL” value (gene MT2A) of the same compound?
Answer: −2.09

Question: What about the “MEAN FOLD CHANGE OVER CONTROL” value (gene MTIF2) of the same compound?
Answer: −59.05

Question: What about the “MEAN FOLD CHANGE OVER CONTROL” value (gene MXD3) of the same compound?
Answer: −2.66

Question: What about the “MEAN FOLD CHANGE OVER CONTROL” value (gene MYBPC2) of the same compound?
Answer: −21.22

Question: And the “MEAN FOLD CHANGE OVER CONTROL” value (gene MYO15A)?
Answer: −50.59

Question: What about the “MEAN FOLD CHANGE OVER CONTROL” value (gene NCF1) of the same compound?
Answer: −33.67

Question: And the “MEAN FOLD CHANGE OVER CONTROL” value (gene NCF2)?
Answer: −21.83

Question: And the “MEAN FOLD CHANGE OVER CONTROL” value (gene NDUFA6)?
Answer: −2.51

Question: And the “MEAN FOLD CHANGE OVER CONTROL” value (gene NDUFB3)?
Answer: −15.58

Question: What about the “MEAN FOLD CHANGE OVER CONTROL” value (gene NDUFV3) of the same compound?
Answer: −10.52

Question: What about the “MEAN FOLD CHANGE OVER CONTROL” value (gene NEB) of the same compound?
Answer: −6.89

Question: What about the “MEAN FOLD CHANGE OVER CONTROL” value (gene NFATC1) of the same compound?
Answer: −16.69

Question: And the “MEAN FOLD CHANGE OVER CONTROL” value (gene NFKBIB)?
Answer: −2.01

Question: What about the “MEAN FOLD CHANGE OVER CONTROL” value (gene NMI) of the same compound?
Answer: −2.41

Question: And the “MEAN FOLD CHANGE OVER CONTROL” value (gene NMU)?
Answer: −2.12

Question: What about the “MEAN FOLD CHANGE OVER CONTROL” value (gene NR0B1) of the same compound?
Answer: −15.94

Question: What about the “MEAN FOLD CHANGE OVER CONTROL” value (gene NR2E1) of the same compound?
Answer: −54.82

Question: And the “MEAN FOLD CHANGE OVER CONTROL” value (gene NR2E3)?
Answer: −14.89

Question: What about the “MEAN FOLD CHANGE OVER CONTROL” value (gene NRG1) of the same compound?
Answer: −17.54

Question: And the “MEAN FOLD CHANGE OVER CONTROL” value (gene NT5C3)?
Answer: −2.08

Question: What about the “MEAN FOLD CHANGE OVER CONTROL” value (gene NT5E) of the same compound?
Answer: −17.10

Question: And the “MEAN FOLD CHANGE OVER CONTROL” value (gene NTHL1)?
Answer: −2.34

Question: What about the “MEAN FOLD CHANGE OVER CONTROL” value (gene NUCKS) of the same compound?
Answer: −2.02

Question: And the “MEAN FOLD CHANGE OVER CONTROL” value (gene NUDT1)?
Answer: −1.89

Question: What about the “MEAN FOLD CHANGE OVER CONTROL” value (gene NUP107) of the same compound?
Answer: −2.68

Question: And the “MEAN FOLD CHANGE OVER CONTROL” value (gene OLR1)?
Answer: −16.33

Question: And the “MEAN FOLD CHANGE OVER CONTROL” value (gene OXCT)?
Answer: −2.68

Question: What about the “MEAN FOLD CHANGE OVER CONTROL” value (gene PAFAH1B1) of the same compound?
Answer: −12.85

Question: What about the “MEAN FOLD CHANGE OVER CONTROL” value (gene PAFAH1B2) of the same compound?
Answer: −2.25

Question: And the “MEAN FOLD CHANGE OVER CONTROL” value (gene PAICS)?
Answer: −2.03

Question: What about the “MEAN FOLD CHANGE OVER CONTROL” value (gene PCDH7) of the same compound?
Answer: −19.65

Question: What about the “MEAN FOLD CHANGE OVER CONTROL” value (gene PCSK2) of the same compound?
Answer: −16.89

Question: And the “MEAN FOLD CHANGE OVER CONTROL” value (gene PDCD5)?
Answer: −2.21

Question: What about the “MEAN FOLD CHANGE OVER CONTROL” value (gene PDE11A) of the same compound?
Answer: −16.85

Question: And the “MEAN FOLD CHANGE OVER CONTROL” value (gene PECAM1)?
Answer: −17.53

Question: What about the “MEAN FOLD CHANGE OVER CONTROL” value (gene PFKL) of the same compound?
Answer: −10.55

Question: And the “MEAN FOLD CHANGE OVER CONTROL” value (gene PHAX)?
Answer: −2.17

Question: And the “MEAN FOLD CHANGE OVER CONTROL” value (gene PHF5A)?
Answer: −2.95

Question: What about the “MEAN FOLD CHANGE OVER CONTROL” value (gene PIR51) of the same compound?
Answer: −3.73

Question: And the “MEAN FOLD CHANGE OVER CONTROL” value (gene PLK4)?
Answer: −2.39

Question: And the “MEAN FOLD CHANGE OVER CONTROL” value (gene PLXNA3)?
Answer: −8.04

Question: And the “fold down-regulation of SULT4A1” value (gene SULT4A1, text statement)?
Answer: ~300 fold

Question: What about the “fold down-regulation of the SYNE1 spectrin repeats” value (gene SYNE1, text statement) of the same compound?
Answer: 1500 fold
